Read-outs that look alike come from different tables or passages of the source.
Key:
Panc-1 cells = assay: Protein expression using high content cell imaging system, and efficacy score; format: cell-based; settings: for Efficacy score: cumulative over proteins of Table 7; on BCL2 protein expression: test concentration or dose not given here; on CCND1 protein expression: test concentration or dose not given here; on CDC25B protein expression: test concentration or dose not given here; on CDKN2A protein expression: test concentration or dose not given here; on COX15 protein expression: test concentration or dose not given here; on GADD45-α protein expression: test concentration or dose not given here; on GAPDH protein expression: test concentration or dose not given here; on ID1 protein expression: test concentration or dose not given here; on MMP-1 protein expression: test concentration or dose not given here; on P27 protein expression: test concentration or dose not given here; on PTN protein expression: test concentration or dose not given here
Panc1 cells [1] = settings: human
Panc1 cells [2] = assay: Drug induced cytotoxicity at various time points, comparison with known CDK inhibitors
[3] = 6 hours post treatment, control 1
[4] = 6 hours post treatment, control 3
[5] = 6 hours post treatment, control 6
[6] = 6 hours post treatment, control 7
[7] = 6 hours post treatment, control 8
[8] = 6 hours post treatment, control 74
[9] = 6 hours post treatment, control 80
[10] = 6 hours post treatment, control 147
[11] = 6 hours post treatment, control 501
[12] = 6 hours post treatment, control 627
[13] = 6 hours post treatment, control 635
[14] = 6 hours post treatment, control 819
[15] = 6 hours post treatment, control 829
[16] = 6 hours post treatment, control 830
[17] = 6 hours post treatment, control 1240
[18] = 16 hours post treatment, control 13
[19] = 16 hours post treatment, control 54
[20] = 16 hours post treatment, control 64
[21] = 16 hours post treatment, control 67
[22] = 16 hours post treatment, control 76
[23] = 16 hours post treatment, control 77
[24] = 16 hours post treatment, control 90
[25] = 16 hours post treatment, control 100
[26] = 16 hours post treatment, control 202
[27] = 16 hours post treatment, control 579
[28] = 16 hours post treatment, control 644
[29] = 16 hours post treatment, control 711
[30] = 16 hours post treatment, control 718
[31] = 16 hours post treatment, control 929
[32] = 16 hours post treatment, control 1109
[33] = 16 hours post treatment, control 2583
[34] = 36 hours post treatment, control 19
[35] = 36 hours post treatment, control 86
[36] = 36 hours post treatment, control 96
[37] = 36 hours post treatment, control 98
[38] = 36 hours post treatment, control 100
[39] = 36 hours post treatment, control 265
[40] = 36 hours post treatment, control 715
[41] = 36 hours post treatment, control 722
[42] = 36 hours post treatment, control 1093
[43] = 36 hours post treatment, control 1316
[44] = 36 hours post treatment, control 1410
[45] = 36 hours post treatment, control 1441
[46] = 36 hours post treatment, control 2840

SMILES: CN1CC[C@H](c2c(O)cc(O)c3c(=O)cc(-c4ccccc4Cl)oc23)[C@H](O)C1 [Flavopiridol]
- PTN protein expression (Panc-1 cells; [3]): 1 fluorescence units
- GADD45-α protein expression (Panc-1 cells; [4]): 1 fluorescence units
- ID1 protein expression (Panc-1 cells; [4]): 2 fluorescence units
- P27 protein expression (Panc-1 cells; [5]): 9 fluorescence units
- CDC25B protein expression (Panc-1 cells; [6]): 1 fluorescence units
- CDKN2A protein expression (Panc-1 cells; [7]): 67 fluorescence units
- CCND1 protein expression (Panc-1 cells; [8]): 78 fluorescence units
- GAPDH protein expression (Panc-1 cells; [9]): 80 fluorescence units
- CASP3 protein expression (Panc-1 cells; [10]): 111 fluorescence units
- MMP-1 protein expression (Panc-1 cells; [11]): 501 fluorescence units
- COX15 protein expression (Panc-1 cells; [12]): 689 fluorescence units
- COX2 protein expression (Panc-1 cells; [13]): 351 fluorescence units
- BAX protein expression (Panc-1 cells; [14]): 481 fluorescence units
- VEGF protein expression (Panc-1 cells; [15]): 501 fluorescence units
- BCL2 protein expression (Panc-1 cells; [16]): 410 fluorescence units
- pRB protein expression (Panc-1 cells; [17]): 1523 fluorescence units
- Efficacy score (Panc-1 cells; 6 hours): 1.6
- GADD45-α protein expression (Panc-1 cells; [18]): 15 fluorescence units
- CDC25B protein expression (Panc-1 cells; [19]): 10 fluorescence units
- CDKN2A protein expression (Panc-1 cells; [20]): 14 fluorescence units
- P27 protein expression (Panc-1 cells; [21]): 22 fluorescence units
- PTN protein expression (Panc-1 cells; [22]): 17 fluorescence units
- ID1 protein expression (Panc-1 cells; [23]): 19 fluorescence units
- CCND1 protein expression (Panc-1 cells; [24]): 52 fluorescence units
- GAPDH protein expression (Panc-1 cells; [25]): 100 fluorescence units
- CASP3 protein expression (Panc-1 cells; [26]): 536 fluorescence units
- VEGF protein expression (Panc-1 cells; [27]): 129 fluorescence units
- BCL2 protein expression (Panc-1 cells; [28]): 401 fluorescence units
- BAX protein expression (Panc-1 cells; [29]): 252 fluorescence units
- COX15 protein expression (Panc-1 cells; [30]): 459 fluorescence units
- MMP-1 protein expression (Panc-1 cells; [31]): 129 fluorescence units
- COX2 protein expression (Panc-1 cells; [32]): 466 fluorescence units
- pRB protein expression (Panc-1 cells; [33]): 1300 fluorescence units
- Efficacy score (Panc-1 cells; 16 hours): 9.4
- GADD45-α protein expression (Panc-1 cells; [34]): 5 fluorescence units
- COX2 protein expression (Panc-1 cells; [35]): 2 fluorescence units
- P27 protein expression (Panc-1 cells; [36]): 2 fluorescence units
- CCND1 protein expression (Panc-1 cells; [37]): 27 fluorescence units
- CDC25B protein expression (Panc-1 cells; [37]): 21 fluorescence units
- GAPDH protein expression (Panc-1 cells; [37]): 2 fluorescence units
- ID1 protein expression (Panc-1 cells; [37]): 3 fluorescence units
- PTN protein expression (Panc-1 cells; [38]): 100 fluorescence units
- CASP3 protein expression (Panc-1 cells; [39]): 599 fluorescence units
- BAX protein expression (Panc-1 cells; [40]): 1049 fluorescence units
- COX15 protein expression (Panc-1 cells; [41]): 1256 fluorescence units
- VEGF protein expression (Panc-1 cells; [42]): 316 fluorescence units
- MMP-1 protein expression (Panc-1 cells; [43]): 316 fluorescence units
- BCL2 protein expression (Panc-1 cells; [44]): 367 fluorescence units
- CDKN2A protein expression (Panc-1 cells; [45]): 798 fluorescence units
- pRB protein expression (Panc-1 cells; [46]): 1557 fluorescence units
- Efficacy score (Panc-1 cells; 36 hours): 9.3
- % Cytotoxicity in Panc1 cells (Panc1 cells [1]; 16 h): 21.25%
- % Cytotoxicity in Panc1 cells (Panc1 cells [1]; 36 h): 29.47%

SMILES: CC[C@H](CO)Nc1nc(NCc2ccccc2)c2ncn(C(C)C)c2n1 [Roscovitine]
- PTN protein expression (Panc-1 cells; [3]): 2 fluorescence units
- GADD45-α protein expression (Panc-1 cells; [4]): 2 fluorescence units
- ID1 protein expression (Panc-1 cells; [4]): 16 fluorescence units
- P27 protein expression (Panc-1 cells; [5]): 6 fluorescence units
- CDC25B protein expression (Panc-1 cells; [6]): 4 fluorescence units
- CDKN2A protein expression (Panc-1 cells; [7]): 10 fluorescence units
- CCND1 protein expression (Panc-1 cells; [8]): 82 fluorescence units
- GAPDH protein expression (Panc-1 cells; [9]): 81 fluorescence units
- CASP3 protein expression (Panc-1 cells; [10]): 217 fluorescence units
- MMP-1 protein expression (Panc-1 cells; [11]): 417 fluorescence units
- COX15 protein expression (Panc-1 cells; [12]): 936 fluorescence units
- COX2 protein expression (Panc-1 cells; [13]): 542 fluorescence units
- BAX protein expression (Panc-1 cells; [14]): 729 fluorescence units
- VEGF protein expression (Panc-1 cells; [15]): 417 fluorescence units
- BCL2 protein expression (Panc-1 cells; [16]): 569 fluorescence units
- pRB protein expression (Panc-1 cells; [17]): 1578 fluorescence units
- Efficacy score (Panc-1 cells; 6 hours): 1.9
- GADD45-α protein expression (Panc-1 cells; [18]): 49 fluorescence units
- CDC25B protein expression (Panc-1 cells; [19]): 38 fluorescence units
- CDKN2A protein expression (Panc-1 cells; [20]): 47 fluorescence units
- P27 protein expression (Panc-1 cells; [21]): 42 fluorescence units
- PTN protein expression (Panc-1 cells; [22]): 37 fluorescence units
- ID1 protein expression (Panc-1 cells; [23]): 55 fluorescence units
- CCND1 protein expression (Panc-1 cells; [24]): 84 fluorescence units
- GAPDH protein expression (Panc-1 cells; [25]): 99 fluorescence units
- CASP3 protein expression (Panc-1 cells; [26]): 1272 fluorescence units
- VEGF protein expression (Panc-1 cells; [27]): 475 fluorescence units
- BCL2 protein expression (Panc-1 cells; [28]): 529 fluorescence units
- BAX protein expression (Panc-1 cells; [29]): 747 fluorescence units
- COX15 protein expression (Panc-1 cells; [30]): 954 fluorescence units
- MMP-1 protein expression (Panc-1 cells; [31]): 475 fluorescence units
- COX2 protein expression (Panc-1 cells; [32]): 990 fluorescence units
- pRB protein expression (Panc-1 cells; [33]): 1632 fluorescence units
- Efficacy score (Panc-1 cells; 16 hours): 11.5
- GADD45-α protein expression (Panc-1 cells; [34]): 44 fluorescence units
- COX2 protein expression (Panc-1 cells; [35]): 67 fluorescence units
- P27 protein expression (Panc-1 cells; [36]): 63 fluorescence units
- CCND1 protein expression (Panc-1 cells; [37]): 98 fluorescence units
- CDC25B protein expression (Panc-1 cells; [37]): 68 fluorescence units
- GAPDH protein expression (Panc-1 cells; [37]): 75 fluorescence units
- ID1 protein expression (Panc-1 cells; [37]): 56 fluorescence units
- PTN protein expression (Panc-1 cells; [38]): 98 fluorescence units
- CASP3 protein expression (Panc-1 cells; [39]): 1335 fluorescence units
- BAX protein expression (Panc-1 cells; [40]): 1785 fluorescence units
- COX15 protein expression (Panc-1 cells; [41]): 1992 fluorescence units
- VEGF protein expression (Panc-1 cells; [42]): 1024 fluorescence units
- MMP-1 protein expression (Panc-1 cells; [43]): 1024 fluorescence units
- BCL2 protein expression (Panc-1 cells; [44]): 1091 fluorescence units
- CDKN2A protein expression (Panc-1 cells; [45]): 1322 fluorescence units
- pRB protein expression (Panc-1 cells; [46]): 1889 fluorescence units
- Efficacy score (Panc-1 cells; 36 hours): 8.1
- % Cytotoxicity in Panc1 cells (Panc1 cells [2]; 6 hrs after drug treatment): 12.35%
- % Cytotoxicity in Panc1 cells (Panc1 cells [2]; 16 hrs after drug treatment): 15.24%
- % Cytotoxicity in Panc1 cells (Panc1 cells [2]; 36 hrs after drug treatment): 17.35%

From US20100152129A1 (priority 2008, published 2010)
